In patent publication US8927601B2, “Uses of N-butylidenephthalide in treating a liver injury and improving liver function” (National Dong Hwa University, priority 2011, dated 2015):
Entries after “also recorded” stand apart in the source; their conditions may differ.

Key:
[1] = system: TAA induced fibrotic livers; experiment: Thioacetamide (TAA)-induced chronic liver fibrosis rat model: gross examination and histopathology (H&E, Masson's trichrome, Metavir score); assay type: in vivo, Wistar rats
Procedure: (§1) 5 ml/kg of thioacetamide (TAA) was injected intraperitoneally into Wistar rats every three days for eight weeks to induce the liver damage. The therapy was performed starting from the fifth week during the thioacetamide induction. 80 mg/Kg/day or 500 mg/Kg/day of n-BP were orally administrated in experimental rats for four weeks.
(§2) To establish the chronic liver fibrosis model in rat, adult male Wistar rats (320±20 g) were used and were intraperitoneally injected with 200 mg/kg TAA (Sigma-Aldrich) once every 3 days for 8 weeks as the liver fibrosis model (78 rats). In the Normal group (24 rats), normal saline was used in place of the TAA. At the end of 4, 6, 8, and 10 weeks (i.e., day 28, 42, 56, and 70 respectively), these rats were sacrificed and cardiac blood samples were collected. These samples were analyzed with a biochemical analyzer (Integra 800; Roche, Holliston, Mass., USA) to measure the liver function index, which included glutamate oxaloacetate transaminase (GOT), glutamate pyruvate transaminase (GPT), serum albumin, total bilirubin and prothrombin time.
Afterwards, the histopathology of liver tissue samples obtained from the sacrificed rats were also analyzed. Liver tissue samples were fixed in 3.7% formaldehyde and then embedded in paraffin. Serial 3-μm sections of the embedded tissues were stained with hematoxylin and eosin or Masson's trichrome. Liver fibrosis is the excessive accumulation of collagen in liver, and therefore the accumulation of collagen is an important index for evaluating liver fibrosis. Masson's trichrome stain is frequently used to identify increases in collagenous tissue in fibrotic liver. For Masson's trichrome stain, sectioned samples were placed in Bouin's solution (Sigma-Aldrich) at 56° C. for 1 h and then were stained sequentially with the following solutions: Mayer's hematoxylin solution (Sigma-Aldrich) for 5 min, Biebrich scarlet-acid fuchsin solution (Sigma-Aldrich) for 15 min, phosphomolybdic acid-phosphotungstic acid (Sigma-Aldrich) for 15 min, and aniline blue (Sigma-Aldrich) for 5 min.
(§3) 78 rats with TAA induced fibrotic livers were randomly divided into 4 groups. For group 1 (TAA group), there were 24 rats which received no therapy. The remaining […] were divided into three groups: Control group, n-BP treated group I (BP 80 mg/kg group) and n-BP treated group II (BP 500 mg/kg group). For these three groups, from the beginning of week 5 to the end of week 8, olive oil, n-BP (80 mg/Kg/day), and n-BP (500 mg/Kg/day) were orally administrated once per day to the rats, wherein the dosage was 1 ml of olive oil per kilogram body weight (Control group), 1 ml of 80 mg/ml n-BP olive oil solution per kilogram body weight (BP 80 mg/kg group), and 1 ml of 500 mg/ml n-BP olive oil solution per kilogram of body weight (BP 500 mg/kg group), respectively. n-BP was purchased from Alfa Aesar®, cat. A10353.
(§4) At the end of 6, 8, and 10 weeks, rats of each group were sacrificed and cardiac blood samples were collected. These samples were analyzed with a biochemical analyzer (Integra 800; Roche, Holliston, Mass., USA) to measure the liver function index, which included glutamate oxaloacetate transaminase (GOT), glutamate pyruvate transaminase (GPT), serum albumin, and prothrombin time. Afterwards, the histopathology of liver tissue samples obtained from the sacrificed rats was also analyzed. Liver tissue samples were fixed in 3.7% formaldehyde and then embedded in paraffin. Serial 3-μm sections of the embedded tissues were stained with hematoxylin and eosin or Masson's trichrome as described above.

[2] = system: TAA induced fibrotic livers; experiment: Thioacetamide (TAA)-induced chronic liver fibrosis rat model: liver function index in blood (GOT, GPT, total bilirubin, albumin, prothrombin time); assay type: in vivo, Wistar rats
Procedure: as §1, §2, §3, §4

angina = conditions: conscious rats; cited from earlier work
[3] = system: alcoholic-induced liver cirrhosis; conditions: patients with alcoholic-induced liver cirrhosis; cited from earlier work
[4] = both n-BP treated groups, end of week 10

Row | Compound | gross examination of the liver ([1]; BP 80 mg/kg group (No. 73, 78) and BP 500 mg/kg group (No. 81, 87)) | inflammatory activity scores (Metavir) ([1]; n-BP 80 or 500 mg/Kg/day oral) | fibrosis grade (Metavir), Masson's trichrome staining ([1]; n-BP 80 or 500 mg/Kg/day oral, weeks 5-8, on 42, 56 and 70 days, control group grade 3-4) | fibrosis score versus control group (olive oil) ([1]; n-BP 80 or 500 mg/Kg/day oral, 42, 56 and 70 days) | collagen accumulation in liver (Masson's trichrome staining) ([1]; n-BP 80 or 500 mg/Kg/day oral, 42, 56 and 70 days (weeks 6, 8, 10)) | liver damage in hematoxylin and eosin stained sections ([1]; n-BP 80 or 500 mg/Kg/day oral, end of 8 weeks and 10 weeks) | inflammation and accumulation of collagen fibers (histopathological examinations) ([1]; therapy groups, n-BP 80 or 500 mg/Kg/day oral for four weeks) | serum total bilirubin level ([2]; both n-BP treated groups, end of week 6 (two weeks after treatments) continuing to end of week 10) | prothrombin time [2, 4] | serum GOT level [2, 4] | serum GPT level [2, 4] | serum total bilirubin level versus Control group [2, 4] | prothrombin time ([2]; both n-BP treated groups, from the end of week 6) | liver function index including GOT, GPT, albumin, total bilirubin and prothrombin time, versus control group ([2]; n-BP 80 or 500 mg/Kg/day oral for four weeks) | serum albumin level ([2]; n-BP treated groups, end of week 10) [g/dL] | albumin level ([2]; n-BP treated groups, ends of week 6 and week 8) | antianginal effect (angina) | effect on blood pressure or heart rate (angina) | mortality [3]
1 | CCCC=C1OC(=O)c2ccccc21 [n-BP, n-butylidenephthalide] | become even better like normal liver morphology | improvement in the recovery of the damaged liver occurs 2 weeks after n-BP treatment | 1-2 | lower | Collagen degradation was found; also recorded: almost no collagen accumulation | recovery from tissue degeneration and vacuolation was evident | significantly reduced | decline at the end of week 6 | decreased to approach that of the Normal group | decline to near-normal values | decline to near-normal values | significantly lower | decreases | significant recovery of liver damage | 4.35 ± 0.47 | rises | relieves angina | without affecting blood pressure or the heart rate | 
2 | CC(=O)CCCCn1c(=O)c2c(ncn2C)n(C)c1=O [Pentoxifylline] |  |  |  |  |  |  |  |  |  |  |  |  |  |  |  |  |  |  | significantly reduce the mortality
